Laboratory results reported in patent US8227240B2, “Systems for screening pharmaceutical chemicals” (The Washington University, priority 2001, dated 2012).
pIC50: −log10 of the molar value. Where two headings read alike, the source gives them in different places. Each block holds one molecule with its values, some of them ahead of it.

Key:
myosin ATPase = test: Inhibition of contractile force activated by 20% FBS in ring sample; format: cell-based; settings: after prior addition of 20% FBS; 2, 4, 20, and 40 μM BDM
Protocol: In a related experiment, FBS was added to activate the contractile force and then a myosin ATPase inhibitor was added.

[1] = tested on: chicken embryo fibroblasts (CEF's) tissue model; test: Ring system: isometric force and dynamic stiffness of fibroblast populated matrices (FPM); format: cell-based; settings: for pIC50: serial additions, sigmoidal dependence
Protocol: Chicken embryo fibroblasts (CEF's) isolated from 11-day chicken embryos (Spafas Inc., Preston, Conn.) were maintained in Dulbecco's modified Eagle's medium (DMEM) supplemented with 10% fetal calf serum (FCS), penicillin at 50 units/ml, and streptomycin at 50 microgram/milliliter. The CEF's used to make tissue models were passaged once or twice from primary cultures. Monomeric collagen solubilized in 0.02 M acetic acid (Upstate Biotechnology Inc., Lake Placid, N.Y.) was neutralized at 4° C. with 0.1 N NaOH and mixed with concentrated DMEM stock to yield a final normal DMEM concentration. The fibroblasts suspended by trypsin (FIG. 1a) were mixed with the collagen solution (FIG. 1b), the cell suspension was poured into Teflon casting wells (FIG. 1c), and the wells were incubated at 37° C. with 5% CO2 (FIG. 1d). The collagen polymerized within 15-30 min and fibroblasts were captured within the hydrated collagen gel. The collagen gel formed a ring (3 mm thick, 3 cm diameter) between the inner wall of the cylindrical well and the central mandrel. While in culture the cells compressed this ring, reducing its volume about 10-fold (thickness 200-300 μm). The ring could then be removed from the mandrel (FIG. 1e and FIG. 1f) and mounted on the measuring instrument (FIG. 1g) as described below.
Mechanical measurements were carried out using a ring system. After two days of incubation (serum starvation for the final 12-16 hours), the mandrel was removed from the casting well and the tissue model-ring was removed gently from the mandrel. As shown in FIG. 1 the tissue model-ring was looped over the triangular hook connected to an isometric force transducer (Model 52-9545, Harvard Apparatus, South Natick, Mass.) by a fine, flexible gold chain. The ring was also looped over a horizontal bar connected to a sliding element moveable vertically and linearly by a stepper motor (P/N 1-19-3400 24V DC 1.8° step size, Haward Industry, St. Louis, Mo.) controlled by a micro-stepping driver (IM483 Intelligent Motion Systems) to measure stress and dynamic modulus of the sample. The micro-stepping driver was controlled by a personal computer with software which enabled the stepper motor to achieve smooth motion. An analog-to-digital signal converter (CIO-DAS1602/16, Computer Boards, Inc., Mansfield, Mass.) attached to the computer translated the voltage signal from the isometric force transducer to a digital signal for recording on a data recorder. The stepper motor controlled the stretching of the tissue. Force exerted by or on the tissue was transmitted to the force transducer by the gold chain.
The tissue sample was submerged in 50 ml Hepes-buffered DMEM (pH 7.4) in a thermo-regulated organ bath (Harvard Apparatus, South Natick, Mass.) maintained at 37° C. The two horizontal bars over which the ring was looped were initially set to hold the ring at its original contour length (corresponding to the circumference of the mandrel).
Typically, for stiffness measurements, the tissue model is subjected to a sequence of stretch cycles. In each cycle the tissue model is slowly stretched from 0 to 20% over 30 minutes and the tissue model is then returned at the same rate to its original length by actuation of the stepper motor. The resulting increase in contractile force during the first stretch is substantially larger than the contractile force in subsequent stretches (FIG. 2a). For each stretch after the first stretch there is a further small decrease in maximum contractile force, but the decrease becomes negligible after sufficient pre-stretching. The tissue models produced contractile force in response to the activation of fibroblasts by serum. This contractile force was abolished by disrupting the actin cytoskeleton with cytochalasin D (2 μM) (FIG. 2b).
The amplitude of the force response divided by the stretching amplitude corresponded to the dynamic stiffness of the sample subjected to a preselected sinusoidal length change. […]

[2] = tested on: rat embryo fibroblast derived cell line (REF52); test: Force response of ring samples to physiological activators without stretching; format: cell-based; settings: each drug added to a single tissue ring
Protocol: Ring samples made using a rat embryo fibroblast derived cell line (REF52) were prepared as described previously herein. The length of the tissue was maintained at a constant level during the test. Each of the drugs indicated in FIG. 15 was added to a single tissue ring.

[3] = tested on: smooth muscle cells (SMCs) isolated from rat aorta; test: Tissue indentation device: acute time-dependent cell force (Example 18); format: cell-based; settings: measured at 0, 1, 4 and 7 min; 50 nM Norepinephrine, 100 nM Endothelin, 10% FBS (FIG. 34)
Protocol: To test the system's ability to measure acute time-dependent response after treating the ETs, vasoconstrictors, norepinephrine and endothelin-1 and general constricting agent, fetal bovine serum (FBS) were added to bio-artificial tissues with smooth muscle cells (SMCs) isolated from rat aorta (10^6 SMCs per ml of bio-artificial tissue solution at bio-artificial tissue formation). The force generated by these bio-artificial tissues was measured at 0, 1, 4 and 7 min after adding the agents. […] The total acquisition time for 64 data points was 40 minutes.

chicken cardiac cells = test: Force response of regular and miniaturized cardiac tissue models; format: cell-based; settings: regular and miniaturized tissues, after calf serum
Protocol: The sample sizes are determined by the diameters of the mandrels and inner diameters of the wells. […] Miniaturized samples made using chick cardiac cells show twitch responses. Therefore this system can be used to test the effects of pharmaceutical candidates treating cardiac dysfunctions (Insert in FIG. 9b)

NIH 3T3 cells = test: Stress relaxation of tension in connective tissue models; format: cell-based; settings: different amounts
Protocol: The connective tissue models made using NIH 3T3 cells were treated with different amounts of the candidate pharmaceutical, Y27632, a Rho kinase specific inhibitor, which has been tested for reducing tension of smooth muscle strips such as rabbit aortic rings (Nature 239 (1997) 990-993). It is one of the promising drug candidates for treating hypertension in the future. Depending on the agonists used to stimulate the tissue contraction, the degree of reduction in tension is different (FIG. 21). […] Thus, the methods are useful for screening pharmaceutical candidates.

[4] = tested on: chicken embryo cardiac fibroblasts (CECFs); test: Contractile response of ring samples to agonists, CECFs; format: cell-based
Excerpt: (§1) Profiles of contractile response to different agonists applied to ring samples were made using chicken embryo cardiac fibroblasts (CECFs) and rat adult cardiac fibroblasts (RACFs) and are shown in FIGS. 16(a)-(d) and FIGS. 16(e)-(h), respectively.
(§2) Time dependent force profiles after addition of FBS (20% v/v) were different depending on the pretreatment by different agonists.

[5] = tested on: rat adult cardiac fibroblasts (RACFs); test: Contractile response of ring samples to agonists, RACFs; format: cell-based
Excerpt: as §1, §2

[6] = tested on: bio-artificial tissues (extracellular matrix, cellular contractility); test: Tissue indentation device: mechanical changes in ECM, EA and pre-tension (Example 17); format: cell-based
Protocol: To verify the sensitivity for detecting changes in the mechanical properties of extracellular matrix (ECM) by the device, different concentrations of collagenase (1, 10, 100 U/ml) were administered to the different sets of bio-artificial tissues at time indicated by the arrow (b) in FIG. 33. All the bio-artificial tissues were treated with Endothelin-1 (50 nM, arrow a) to make sure the cells were responding to a contractile stimuli.
Experimental groups are separated into control (no treatment, filled circle), and treatments with 1, 10, 100 U/ml collagenase indicated by open circle, open triangle, and open square, respectively. After addition of 1 U/ml collagenase, the pre-tension, i.e. cellular contractility, was maintained compared to that of untreated control. […] While the collagenase digested the collagen matrix and affected ECM stiffness, the cell-ECM connection was slowly disrupted. Therefore, the cellular contractility was decreased especially with higher concentrations of collagenase. Nevertheless, the dataset indicated the measurement system sensitively detected incremental changes in ECM mechanics depending on the level of collagen degradation by the increasing concentrations of collagenase. At the 20 min time point (10 min after collagenase treatment), the apparent reduction of EA, but not pre-tension, indicates the EA was more sensitive to treatments affecting the extracellular matrix.

ring tissue model = test: Contractile force developed by ring sample during tissue development (matrix remodeling and compression); format: cell-based
Protocol: The contractile force developed by the ring sample during matrix remodeling and compression can be measured by connecting the ring to the force measuring apparatus as described above within about 1-2 hours after collagen gelation. The cells begin to exert a force on the matrix after this time. Then the increase of force during tissue development (remodeling and compression) is observed over time.
Maximum force is typically reached within 15 to 20 hours. This process was also disrupted by several inhibitors as illustrated in FIGS. 18(b)-(d).

fully activated contractile force (myosin ATPase): reduced, in a dose dependent manner
Molecule: CC(=O)C(C)=NO [BDM, butane dione monoxime]

Molecule: C/C1=C/C(=O)O[C@@H]2C[C@@H](CC[C@H](C)/C=C\CC1)O[C@@](O)([C@@H]1CSC(=O)N1)C2 [LA-B, Latrunculin B]
concentration at which force and dynamic stiffness reached their minimum values [1]: ~600 nM | concentration range over which tension and stiffness decrease [1]: single decade | lowest concentration at which force and dynamic stiffness were significantly diminished [1]: 40 nM | effect on viscosity of the tissues (phase angle δ) ([1]; data not shown): relatively minor effect | pIC50 ([1]; read-out: estimated half maximum concentration for reducing the force): 7.28 | pIC50 ([1]; read-out: estimated half maximum concentration for reducing the stiffness): 7.17

Molecule: NC[C@H](O)c1ccc(O)c(O)c1 [Norepinephrine, norepinephrine]
force response of tissue ring at constant length [2]: reduced the initial base line force | cell force (active force) after adding the agent [3]: increased over time | time at which cell force reached its maximum value [3]: 7 min

Molecule: C[C@@H](N)[C@H]1CC[C@H](C(=O)Nc2ccncc2)CC1 [Y27632]
force of cardiac tissue models (chicken cardiac cells): decreased | tension of connective tissue models (NIH 3T3 cells): reduces the tension

Molecule: CC[C@H](C)[C@H](NC(=O)[C@H](CC(=O)O)NC(=O)[C@H](CC(C)C)NC(=O)[C@H](Cc1c[nH]cn1)NC(=O)[C@@H]1CSSC[C@H](N)C(=O)N[C@@H](CO)C(=O)N[C@H]2CSSC[C@H](NC(=O)[C@H](CCC(=O)O)NC(=O)[C@H](CCCCN)NC(=O)[C@H](CC(=O)O)NC(=O)[C@H](CCSC)NC(=O)[C@H](CC(C)C)NC(=O)[C@H](CO)NC(=O)[C@H](CO)NC2=O)C(=O)N[C@@H](C(C)C)C(=O)N[C@@H](Cc2ccc(O)cc2)C(=O)N[C@@H](Cc2ccccc2)C(=O)N1)C(=O)N[C@H](C(=O)N[C@@H](Cc1c[nH]c2ccccc12)C(=O)O)[C@@H](C)CC [endothelin, endothelin-1]
force response of tissue ring at constant length [2]: produce different forces | contractile response of ring [4]: contracted rings | contractile response of ring [5]: contracted rings | pre-tension (cellular contractility) ([6]; Endothelin-1 50 nM): increased immediately | cell force (active force) after adding the agent [3]: increased over time | time at which cell force reached its maximum value [3]: 7 min

Molecule: CCO [ethanol]
force and stiffness of tissue models (tissue models; 10% solution of ethanol): reduces force and stiffness of tissue models significantly | level of baseline force maintained by the viable cells (tissue models; different dose of ethanol): decrease

Molecule: CO[C@H]1[C@@H](OC)C[C@H](C)[C@@H](OC)C2=CC(=O)C=C(NC(=O)/C(C)=C/C=C\[C@H](OC)[C@@H](OC(N)=O)/C(C)=C/[C@@H]1C)C2=O [herbimycin A]
maximum force during ring tissue development (ring tissue model): reduces the maximum force

Molecule: COC(=O)Nc1nc2ccc(C(=O)c3cccs3)cc2[nH]1 [nocodazole]
maximum force during ring tissue development (ring tissue model): reduces the maximum force

Molecule: CNC[C@H](O)c1cccc(O)c1 [phenylephrine]
force response of tissue ring at constant length [2]: reduced the initial base line force

Molecule: NC(=O)CC[C@@H]1NC(=O)[C@H](Cc2ccccc2)NC(=O)[C@H](Cc2ccc(O)cc2)NC(=O)[C@@H](N)CSSC[C@@H](C(=O)N2CCC[C@H]2C(=O)N[C@@H](CCCN=C(N)N)C(=O)NCC(N)=O)NC(=O)[C@H](CC(N)=O)NC1=O [vasopressin]
force response of tissue ring at constant length [2]: produce different forces | contractile response of ring [4]: did not response | contractile response of ring [5]: responded

Molecule: EGF: epidermal growth factor (NSDSECPLSHDGYCLHDGVCMYIEALDKYACNCVVGYIGERCQYRDLKWWELR; Epidermal growth factor; UniProt P01133 971-1023, looked up)
contractile response of ring [4]: did not respond to any dose

Molecule: Thrombin
force response of tissue ring at constant length [2]: produce different forces

Molecule: angiotensin II (DRVYIHPF; Angiotensin-2; UniProt P01019 25-32, looked up) [agonist]
contractile response of ring [4]: did not response | contractile response of ring [5]: responded

Molecule: collagenase
pre-tension (cellular contractility) compared to untreated control ([6]; 1 U/ml collagenase, after Endothelin-1 50 nM): maintained | EA (tissue stiffness) ([6]; 1 U/ml collagenase, about 10 min after treatment): began to be reduced | pre-tension (cellular contractility) ([6]; 10 U/ml collagenase, for ~10 min): didn't reduce the pre-tension significantly | drop of EA (tissue stiffness) ([6]; 100 U/ml collagenase, ~10 min after treatment): already significant

Molecule: lysophosphatidic acid [LPA]
force response of tissue ring at constant length [2]: produce different forces
